Results from US20250163038A1, “CBL-B MODULATORS AND USES THEREOF” (Nimbus Clio, Inc., priority 2021, published 2025).
Read-outs that look alike come from different tables or passages of the source.

Key:
[1] = biological target: Recombinant human Cbl-b (aa 36-427) (Homo sapiens, UniProt Q13191); assay: Cbl-b Biochemical Assay (TR-FRET); conditions: read-out: TR-FRET hCbl-b IC50
[2] = tested on: Jurkat (clone E6-1) cells with NFAT luciferase reporter; assay: Jurkat reporter assay (NFAT Luciferase); type: cell-based; conditions: Jurkat NFAT luciferase reporter cells, anti-CD3 stimulation, 6 hr, read-out: Jurkat NFAT EC50
[3] = biological target: T1, Recombinant human c-Cbl (aa 47-435) (Homo sapiens, UniProt P22681); assay: c-Cbl Biochemical Assay (TR-FRET); conditions: hc-Cbl Biochemical Assay (TR-FRET); read-out: TR-FRET hcCbl IC50
T1 sequence (P22681 47-435): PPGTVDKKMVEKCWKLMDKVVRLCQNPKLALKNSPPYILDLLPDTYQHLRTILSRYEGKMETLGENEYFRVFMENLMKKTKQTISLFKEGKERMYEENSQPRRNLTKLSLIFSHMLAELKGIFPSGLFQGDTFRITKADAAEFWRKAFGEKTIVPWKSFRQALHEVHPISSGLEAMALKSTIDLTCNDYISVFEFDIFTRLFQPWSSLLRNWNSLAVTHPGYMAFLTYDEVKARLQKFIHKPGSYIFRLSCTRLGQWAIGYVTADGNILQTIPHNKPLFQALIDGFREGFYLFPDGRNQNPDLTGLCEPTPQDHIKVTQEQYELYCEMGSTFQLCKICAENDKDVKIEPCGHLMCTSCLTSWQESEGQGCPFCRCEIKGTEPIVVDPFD

Sequence of Recombinant human Cbl-b (aa 36-427) (Q13191 36-427): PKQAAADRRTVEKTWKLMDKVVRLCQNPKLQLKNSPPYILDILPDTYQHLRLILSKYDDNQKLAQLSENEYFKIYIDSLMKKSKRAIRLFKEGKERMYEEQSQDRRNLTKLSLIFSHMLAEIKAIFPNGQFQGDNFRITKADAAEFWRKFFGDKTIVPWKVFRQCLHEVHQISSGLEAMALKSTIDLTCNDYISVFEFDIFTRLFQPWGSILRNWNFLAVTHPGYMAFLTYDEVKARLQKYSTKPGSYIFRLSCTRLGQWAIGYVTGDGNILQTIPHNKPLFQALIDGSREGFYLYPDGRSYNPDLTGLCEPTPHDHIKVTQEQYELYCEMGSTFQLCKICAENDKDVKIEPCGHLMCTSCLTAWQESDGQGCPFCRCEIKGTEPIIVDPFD

Row | Compound | IC50 [1] [nM] | EC50 ([2]; Homo sapiens) [nM] | IC50 [3] [nM] | EC50 [2] [nM]
1 | Cn1cnnc1-c1cc(F)ccc1-c1cc(-c2nc3cc(CNCC4(O)CCC4)c(F)c(F)c3o2)nc(C2CC2)c1 [AGA-1, 1-({[(2-{6-Cyclopropyl-4-[4-fluoro-2-(4-methyl-1,2,4-triazol-3-yl)phenyl]pyridin-2-yl}-6,7-difluoro-1,3-benzoxazol-5-yl)methyl]amino}methyl)cyclobutan-1-ol] | < 200 | < 200 | < 200 | 
2 | COCCNCc1cc(C)c2oc(-c3cccc(-c4ccc(F)cc4-c4nncn4C)c3)nc2c1 [GV-1, N-((2-(4′-Fluoro-2′-(4-methyl-4H-1,2,4-triazol-3-yl)-[1,1′-biphenyl]-3-yl)-7-methylbenzo[d]oxazol-5-yl)methyl)-2-methoxyethan-1-amine] | < 200 | 200 to 1000 | 200 to 1000 | 
3 | Cn1cnnc1-c1ccccc1-c1cccc(-c2nc3cc(CN[C@@H]4CCC[C@H]4O)cc(C(F)(F)F)c3o2)c1 [Example N-1, (1R,2R)-2-(((2-(2′-(4-Methyl-4H-1,2,4-triazol-3-yl)-[1,1′-biphenyl]-3-yl)-7-(trifluoromethyl)benzo[d]oxazol-5-yl)methyl)amino)cyclopentan-1-ol] | < 200 | 1000 to 10000 | 1000 to 10000 | 
4 | Cn1cnnc1-c1cc(F)ccc1-c1cccc(-c2nc3cc(CNCC(C)(C)F)cc(C(F)(F)F)c3o2)c1 [DA-1, 2-Fluoro-N-((2-(4′-fluoro-2′-(4-methyl-4H-1,2,4-triazol-3-yl)-[1,1′-biphenyl]-3-yl)-7-(trifluoromethyl)benzo[d]oxazol-5-yl)methyl)-2-methylpropan-1-amine] | < 200 | < 200 | < 200 | 
5 | COCCNCc1cc(C(F)(F)F)c2[nH]c(-c3cc(-c4ccc(F)cc4-c4nncn4C)cc(C4CC4)n3)nc2c1 [ADW-1, [(2-{6-Cyclopropyl-4-[4-fluoro-2-(4-methyl-1,2,4-triazol-3-yl)phenyl]pyridin-2-yl}-7-(trifluoromethyl)-1H-1,3-benzodiazol-5-yl)methyl](2-methoxyethyl)amine] | < 200 | < 200 | < 200 | 
6 | Cn1cnnc1[C@]1(c2cccc(-c3nc4cc(CN[C@@H]5CCC[C@@H]5O)cc(C(F)(F)F)c4o3)c2)C[C@@H](C)C1 [ADE-3, (1S,2R)-2-{[(2-{3-[(1r,3s)-3-Methyl-1-(4-methyl-1,2,4-triazol-3-yl)cyclobutyl]phenyl}-7-(trifluoromethyl)-1,3-benzoxazol-5-yl)methyl]amino}cyclopentan-1-ol] | < 200 |  | < 200 | < 200
7 | Cn1cnnc1-c1cc(F)ccc1-c1cccc(-c2nc3cc(CN[C@@H]4CCC[C@@]4(C)O)cc(C(F)(F)F)c3o2)c1 [DP-5, (1R,2R)-2-(((2-(4′-Fluoro-2′-(4-methyl-4H-1,2,4-triazol-3-yl)-[1,1′-biphenyl]-3-yl)-7-(trifluoromethyl)benzo[d]oxazol-5-yl)methyl)amino)-1-methylcyclopentan-1-ol] | < 200 | 200 to 1000 | < 200 | 
8 | Cn1cnnc1-c1cc(F)ccc1-c1cccc(-c2nc3cc(CN4C(=O)O[C@H]5CCC[C@H]54)cc(C(F)(F)F)c3o2)c1 [CY-1, (3aR,6aS)-3-((2-(4′-Fluoro-2′-(4-methyl-4H-1,2,4-triazol-3-yl)-[1,1′-biphenyl]-3-yl)-7-(trifluoromethyl)benzo[d]oxazol-5-yl)methyl)hexahydro-2H-cyclopenta[d]oxazol-2-one] | < 200 | 1000 to 10000 | 200 to 1000 | 
9 | Cn1cnnc1-c1cc(Cl)ccc1-c1cccc(-c2nc3cc(CN[C@@H]4CCC[C@@H]4O)cc(C(F)(F)F)c3o2)c1 [ADI-3, (1S,2R)-2-[({2-[4′-Chloro-2′-(4-methyl-1,2,4-triazol-3-yl)-[1,1′-biphenyl]-3-yl]-7-(trifluoromethyl)-1,3-benzoxazol-5-yl}methyl)amino]cyclopentan-1-ol] | < 200 | < 200 | < 200 | 
